The results in this text go back to patent US12522582B2 (Gilead Sciences, Inc., priority 2022, dated 2026).

Usually EC50 stands for the midpoint of the concentration-response curve.

The test system of this test is HSV-2 virus (MS strain). Kind of test: HSV-2 Cellomics Assay (immunofluorescence of HSV protein gD in infected ARPE-19 cells). As to conditions: Human alphaherpesvirus 2, ARPE-19, 16 h.
The mark [1] stands for this setting: read-out: EC50-HSV2-10% Human Serum.

Like-named read-outs stand apart in the source and are kept apart here.

Procedure: Compounds were tested for their ability to inhibit HSV-2 replication by monitoring the expression of the HSV protein gD using a high-throughput immunofluorescence-based assay. 10-dose, 3-fold serial dilutions of compounds were prepared at starting concentrations of 0.2 or 2 mM in 100% DMSO. […] The final starting concentration in the assay was either 1 or 10 μM. DMSO (no compound) and pritelivir were included on each microplate as negative and positive controls, respectively.
Prior to confluence, cells were transferred to a centrifuge tube and spun for 5 minutes at 1000 rpm. Cells were resuspended in assay medium (DMEM/F-12 Glutamax, 2% FBS, 1% Penicillin-Streptomycin) and counted. Cell density was adjusted to 150,000 cells/ml and infected with HSV-2 virus (MS strain, ATCC cat #VR-540) at a MOI of 0.06 in a 50 ml conical tube for 1 hour under constant rocking. Cells were then spun for 5 minutes at 1000 rpm and the media replaced with assay medium containing either 2% FBS or 10% human serum (EMD Millipore cat #S1-100 ML). 50 μl of the infection suspension were added into microplate wells that were pre-spotted with compounds (7,500 cells per well). Plates were incubated for 16 hours at 37° C.
After a 30-minute incubation at room temperature, plates were washed 4 times with 100 μl/well of PBS using a Biotek plate washer. […] Plates were washed 4 times again and 50 μl of DPBS were added to all wells prior to sealing the plates with a black adhesive seal. Fluorescence was measured on a Cellomics plate reader.
Data analysis was carried out using the Thermo Scientific HCS Studio software. Briefly, cells were identified using the DAPI nuclear stain and thresholds were set to filter cells out based on shape and size. A second threshold based on green fluorescence intensity (detection of HSV-2 gD) was set to identify HSV-2 infected cells. Data was reported as the average fluorescence intensity of HSV-2 infected cells.

On to `CS(=N)(=O)c1cc2c(cc1F)CCN2C(=O)[C@@H]1Cc2ccc(-c3ccccn3)cc2C1` (mixture of isomers) [Example 39, (5-fluoro-1-((R)-5-(pyridin-2-yl)-2,3-dihydro-1H-indene-2-carbonyl)indolin-6-yl)(imino)(methyl)-λ^6-sulfanone], for which the EC50 is, setting by setting: under setting [1], 188 nM; (read-out: EC50-HSV2-FBS) 45 nM.
`COc1cccc(-c2ccc3c(c2)CC(C(=O)N2CCc4ccc(S(N)(=O)=O)cc42)C3)n1` (stereo not shown) [Example 77]: the EC50 under setting [1] was 10500 nM and the EC50 (read-out: EC50-HSV2-FBS) amounted to 121 nM.
For `CS(=N)(=O)c1cc2c(cc1F)CCN2C(=O)[C@@H]1Cc2ccc(-c3cc(F)ccc3F)cc2C1` (stereo partly drawn) [Example 51, (1-((R)-5-(2,5-difluorophenyl)-2,3-dihydro-1H-indene-2-carbonyl)-5-fluoroindolin-6-yl)(imino)(methyl)-λ^6-sulfanone] the same measures were 239 nM and 53 nM.
Take `C[C@@H]1CN(C(=O)[C@H]2Cc3cc(-c4ccccn4)ccc3[C@@H]2C)c2cc(S(N)(=O)=O)c(F)cc21` (single isomer, unassigned) [Example 105]: the concentration for a half-maximal effect (EC50) amounted to 251 nM under setting [1] and 45 nM (read-out: EC50-HSV2-FBS).
For `NS(=O)(=O)c1ccc2c(c1)N(C(=O)C1Cc3ccc(-c4ccsn4)cc3C1)CC2` (stereo not shown) [Example 24], in that order: at least 25000 nM and 19 nM.
For `NS(=O)(=O)c1ccc2c(c1)N(C(=O)[C@@H]1Cc3ccc(-c4ncccn4)cc3C1)CC2` [Example 133, (R)-1-(5-(pyrimidin-2-yl)-2,3-dihydro-1H-indene-2-carbonyl)indoline-6-sulfonamide], in that order: 6130 nM and 102 nM.
Turning to `CC1CN(C(=O)[C@H]2Cc3cc(-c4ccccn4)ccc3[C@@H]2C)c2cc(S(N)(=O)=O)c(F)cc21` (mixture of isomers) [Example 103, 5-fluoro-3-methyl-1-((1R,2S)-1-methyl-5-(pyridin-2-yl)-2,3-dihydro-1H-indene-2-carbonyl) indoline-6-sulfonamide], the concentration giving a half-maximal response (EC50) reads like this: under setting [1], 221 nM; (read-out: EC50-HSV2-FBS) 36 nM.
For `Cc1nc(-c2ccc3c(c2)CC(C(=O)N2CCc4ccc(S(N)(=O)=O)cc42)C3)cs1` (stereo not shown) [Example 25] the same measures were at least 25000 nM and 32 nM.
For `C[S@@](=N)(=O)c1ccc2c(c1)N(C(=O)[C@@H]1Cc3ccc(-c4ccccn4)cc3C1)CC2` (single isomer, unassigned) [Example 31] the same measures were 9380 nM and 849 nM.
`CC1CN(C(=O)[C@@H]2Cc3cc(-c4ccccn4)ccc3[C@H]2C)c2cc(S(N)(=O)=O)ccc21` (stereo partly drawn) [Example 101, 3-methyl-1-((1S,2R)-1-methyl-5-(pyridin-2-yl)-2,3-dihydro-1H-indene-2-carbonyl)indoline-6-sulfonamide]: where the note is “read-out: EC50-HSV2-FBS”, the EC50 was found to be 6760 nM.
Regarding `NS(=O)(=O)c1cc(Cl)c2c(c1)N(C(=O)C1Cc3ccc(-c4ccccn4)cc3C1)CC2` (stereo not shown) [Example 7], the concentration for a half-maximal effect (EC50) under setting [1] was at least 25000 nM and the half-maximal effective concentration (EC50) (read-out: EC50-HSV2-FBS) came out at 62 nM.
For `NS(=O)(=O)c1ccc2c(c1)N(C(=O)C1Cc3cc(F)c(-c4ccccn4)cc3C1)CC2` (stereo not shown) [Example 9], in that order: 2600 nM and 105 nM.
For the molecule `COc1cncc(-c2ccc3c(c2)CC(C(=O)N2CCc4ccc(S(N)(=O)=O)cc42)C3)n1` (stereo not shown) [Example 72], the EC50 reads like this: under setting [1], 12300 nM; (read-out: EC50-HSV2-FBS) 252 nM.
For `C[C@@H]1c2ccc(-c3ccccn3)cc2C[C@H]1C(=O)N1CCc2ccc(S(N)(=O)=O)cc21` [Example 93, 1-((1S,2R)-1-methyl-5-(pyridin-2-yl)-2,3-dihydro-1H-indene-2-carbonyl)indoline-6-sulfonamide] the same measures were at least 25000 nM and 1850 nM.
`CC1(C)CN(C(=O)C2Cc3ccc(-c4ccccn4)cc3C2)c2cc(S(N)(=O)=O)ccc21` (stereo not shown) [Example 109]: the 50% effective concentration (EC50) (read-out: EC50-HSV2-FBS) was 390 nM.
